Results as given in patent US20250346597A1, “CONDENSED HETEROCYCLIC COMPOUNDS AS INHIBITOR OF DIACYLGLYCEROL KINASES” (BEONE MEDICINES I GMBH, priority 2023, published 2025).

Legend:
DGKζ = DGKζ (Homo sapiens (Human), UniProt Q13574); assay: Biochemical DGK IC50 assay (ADP-Glo, lipid micelle substrate), DGKζ; details: full length DGKζ 0.5 nM, ATP 140 μM, DAG 80 μM
Summary of the method: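 ADP-Glo luminescence measured ADP made in a 1 h room-temperature reaction. The enzyme was Sf9-expressed, purified full-length human DGKζ, and the substrate was DAG/PS micelles. Assay buffer held 50 mM HEPES, 10 mM MgCl2, 0.01 mM CaCl2, 0.1 mM Na3VO4 and 0.01% BSA. IC50 was derived from activity inhibition over a compound concentration series.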

DGKα = DGKα (Homo sapiens (Human), UniProt P23743); assay: Biochemical DGK IC50 assay (ADP-Glo, lipid micelle substrate), DGKα; details: full length DGKα […], ATP 140 μM, DAG 80 μM; note: full length DGKα 7.5 nM
Summary of the method: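 Luminescent ADP-Glo detection followed a 1 h room-temperature reaction of full-length DGKα on DAG/PS micelles, in HEPES buffer with 10 mM MgCl2, 0.01 mM CaCl2, 0.1 mM Na3VO4, BSA and Tween-20. IC50 derived from inhibition across increasing compound concentrations.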

DGKζ, sequence (Q13574 other isoform, or with tags, fused parts or gaps): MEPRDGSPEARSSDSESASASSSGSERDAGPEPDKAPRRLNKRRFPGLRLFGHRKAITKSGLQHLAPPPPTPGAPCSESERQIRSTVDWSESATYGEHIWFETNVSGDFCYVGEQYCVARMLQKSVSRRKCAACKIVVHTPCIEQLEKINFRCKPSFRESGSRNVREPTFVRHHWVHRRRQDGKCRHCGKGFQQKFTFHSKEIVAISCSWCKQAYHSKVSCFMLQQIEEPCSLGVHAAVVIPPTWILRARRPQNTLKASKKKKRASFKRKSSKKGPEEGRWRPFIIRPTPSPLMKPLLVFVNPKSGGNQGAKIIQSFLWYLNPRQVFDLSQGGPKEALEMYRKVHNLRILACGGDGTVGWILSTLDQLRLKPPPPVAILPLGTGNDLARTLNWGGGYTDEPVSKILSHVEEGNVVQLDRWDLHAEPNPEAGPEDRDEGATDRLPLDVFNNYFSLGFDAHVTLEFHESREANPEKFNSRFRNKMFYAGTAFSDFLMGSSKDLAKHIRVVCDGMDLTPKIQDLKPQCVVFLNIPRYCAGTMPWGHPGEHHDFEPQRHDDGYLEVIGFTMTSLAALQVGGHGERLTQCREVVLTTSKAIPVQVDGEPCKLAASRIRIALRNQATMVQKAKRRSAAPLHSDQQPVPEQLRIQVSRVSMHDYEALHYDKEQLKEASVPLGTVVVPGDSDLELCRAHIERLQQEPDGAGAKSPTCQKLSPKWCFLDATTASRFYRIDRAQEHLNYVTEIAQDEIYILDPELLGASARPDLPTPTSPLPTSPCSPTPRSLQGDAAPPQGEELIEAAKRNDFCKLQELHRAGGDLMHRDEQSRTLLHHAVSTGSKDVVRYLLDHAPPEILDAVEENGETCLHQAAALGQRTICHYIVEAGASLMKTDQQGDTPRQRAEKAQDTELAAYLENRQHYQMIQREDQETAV
DGKα, sequence (P23743 whole entry): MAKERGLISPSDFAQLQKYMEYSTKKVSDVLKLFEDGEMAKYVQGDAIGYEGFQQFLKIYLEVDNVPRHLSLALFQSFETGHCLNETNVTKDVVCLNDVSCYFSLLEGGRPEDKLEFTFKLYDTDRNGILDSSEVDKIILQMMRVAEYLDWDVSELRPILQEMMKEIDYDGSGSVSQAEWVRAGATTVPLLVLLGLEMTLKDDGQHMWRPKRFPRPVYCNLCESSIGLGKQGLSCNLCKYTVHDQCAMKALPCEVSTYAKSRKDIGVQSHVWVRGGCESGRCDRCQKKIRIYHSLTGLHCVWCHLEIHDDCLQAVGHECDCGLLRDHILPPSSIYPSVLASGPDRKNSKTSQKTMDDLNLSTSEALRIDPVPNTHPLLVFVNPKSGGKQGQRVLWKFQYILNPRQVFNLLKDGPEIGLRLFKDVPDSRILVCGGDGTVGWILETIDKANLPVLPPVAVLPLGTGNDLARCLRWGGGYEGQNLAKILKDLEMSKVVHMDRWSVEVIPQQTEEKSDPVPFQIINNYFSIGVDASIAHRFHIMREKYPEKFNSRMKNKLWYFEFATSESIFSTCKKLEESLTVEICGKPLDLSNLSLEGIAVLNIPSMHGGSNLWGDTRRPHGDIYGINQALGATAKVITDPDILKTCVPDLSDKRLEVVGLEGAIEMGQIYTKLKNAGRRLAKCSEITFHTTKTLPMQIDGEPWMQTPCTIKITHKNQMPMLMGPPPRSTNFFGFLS

| Compound | IC50 (DGKζ) [nM] | IC50 (DGKα) [nM] |
| --- | --- | --- |
| CC[C@H]1CN(C(C)c2ccn3ncc(F)c3c2)[C@H](CC)CN1c1cc(=O)n(C)c2cn(CC#N)nc12 (single isomer, unassigned) [Compound A165b] | 1580 | 2440 |
| CC[C@H]1CN(C(C)c2ccn3nc(C)c(F)c3n2)[C@H](CC)CN1c1nc(=O)n(C)c2cn(CC#N)nc12 (single isomer, unassigned) [Compound A170a] | > 10000 | > 10000 |
| CC[C@H]1CN(C(C)c2ccn3nc(C)c(F)c3n2)[C@H](CC)CN1c1nc(=O)n(C)c2cn(CC#N)nc12 (single isomer, unassigned) [Compound A170b] | 52.5 | 109 |
| CC[C@H]1CN(C(C)c2ccc3ncc(Cl)n3n2)[C@H](CC)CN1c1nc(=O)n(C)c2cn(CC#N)nc12 (single isomer, unassigned) [Compound A174a] | 8850 | 6470 |
| CC[C@H]1CN(C(C)c2ccc3ncc(Cl)n3n2)[C@H](CC)CN1c1nc(=O)n(C)c2cn(CC#N)nc12 (single isomer, unassigned) [Compound A174b] | 8.9 | 53 |
| CC(c1cc2c(cc1F)OCC(C)(C)O2)N1C[C@H](C)N(c2cc(=O)n(C)c3cn(CC#N)nc23)C[C@H]1C (single isomer, unassigned) [Compound A179a] | 1410 | 15900 |
| CC(c1cc2c(cc1F)OCC(C)(C)O2)N1C[C@H](C)N(c2cc(=O)n(C)c3cn(CC#N)nc23)C[C@H]1C (single isomer, unassigned) [Compound A179b] | 323 | 3190 |
| CC[C@H]1CN(C(C)c2ccc3cnncc3c2)[C@H](CC)CN1c1cc(=O)n(C)c2cn(CC#N)nc12 (single isomer, unassigned) [Compound A186a] | 841 | 53 |
| CC[C@H]1CN(C(C)c2ccc3cnncc3c2)[C@H](CC)CN1c1cc(=O)n(C)c2cn(CC#N)nc12 (single isomer, unassigned) [Compound A186b] | > 10000 | 1220 |
| CC[C@H]1CN(C(C)c2ccc(N)nc2)[C@H](CC)CN1c1cc(=O)n(C)c2cn(CC#N)nc12 (single isomer, unassigned) [Compound A187a] | > 10000 | 1990 |
| CC[C@H]1CN(C(C)c2ccc(CN3CCC(OC)CC3)cc2)[C@H](CC)CN1c1cc(=O)n(C)c2cn(CC#N)nc12 (single isomer, unassigned) [Compound A189a] | 2190 | 1080 |
| CC[C@H]1CN(C(C)c2ccc(CN3CCC(OC)CC3)cc2)[C@H](CC)CN1c1cc(=O)n(C)c2cn(CC#N)nc12 (single isomer, unassigned) [Compound A189b] | 8540 | 11800 |
| CC[C@H]1CN(C(C)c2ccc(C(=O)NC)cc2)[C@H](CC)CN1c1cc(=O)n(C)c2cn(CC#N)nc12 (single isomer, unassigned) [Compound A193a] | 2870 | 515 |
| CC[C@H]1CN(C(C)c2ccc(C(=O)NC)cc2)[C@H](CC)CN1c1cc(=O)n(C)c2cn(CC#N)nc12 (single isomer, unassigned) [Compound A193b] | > 10000 | 6510 |
| CC[C@H]1CN(C(C)c2ccc(C(=O)N3CCC(OC)CC3)cc2)[C@H](CC)CN1c1cc(=O)n(C)c2cn(CC#N)nc12 (single isomer, unassigned) [Compound A194a] | 1450 | 291 |
| CC[C@H]1CN(C(C)c2ccc(C(=O)N3CCC(OC)CC3)cc2)[C@H](CC)CN1c1cc(=O)n(C)c2cn(CC#N)nc12 (single isomer, unassigned) [Compound A194b] | 6050 | 2530 |
| CC[C@H]1CN(C(C)c2ccc(C(=O)N(C)CCOC)cc2)[C@H](CC)CN1c1cc(=O)n(C)c2cn(CC#N)nc12 (single isomer, unassigned) [Compound A195a] | 1410 | 774 |
| CC[C@H]1CN(C(C)c2ccc(C(=O)N(C)CCOC)cc2)[C@H](CC)CN1c1cc(=O)n(C)c2cn(CC#N)nc12 (single isomer, unassigned) [Compound A195b] | > 10000 | 4210 |
| CC[C@H]1CN(C(C)c2ccc(CN3CCC(OC)C3)cc2)[C@H](CC)CN1c1cc(=O)n(C)c2cn(CC#N)nc12 (single isomer, unassigned) [Compound A203a] | 2690 | 1110 |
| CC[C@H]1CN(C(C)c2ccc(CN3CCC(OC)C3)cc2)[C@H](CC)CN1c1cc(=O)n(C)c2cn(CC#N)nc12 (single isomer, unassigned) [Compound A203b] | 7610 | 11600 |
| CC[C@H]1CN(C(C)c2ccc3c(C)cnn3c2)[C@H](CC)CN1c1cc(=O)n(C)c2cn(CC#N)nc12 (single isomer, unassigned) [Compound A204a] | 31 | 467 |
| CC[C@H]1CN(C(C)c2ccc3c(C)cnn3c2)[C@H](CC)CN1c1cc(=O)n(C)c2cn(CC#N)nc12 (single isomer, unassigned) [Compound A204b] | 971 | 7300 |
| CC#CCn1cc2c(n1)c(N1C[C@@H](CC)N(C(C)c3cnc4ccccc4n3)C[C@@H]1CC)cc(=O)n2C (single isomer, unassigned) [Compound A206a] | 8300 | 480 |
| CC#CCn1cc2c(n1)c(N1C[C@@H](CC)N(C(C)c3cnc4ccccc4n3)C[C@@H]1CC)cc(=O)n2C (single isomer, unassigned) [Compound A206b] | 103 | 25 |
| CC[C@H]1CN(C(C)c2cc(F)c(CN3CCS(=O)(=O)CC3)c(F)c2)[C@H](CC)CN1c1cc(=O)n(C)c2cn(CC#N)nc12 (stereo partly drawn) [Compound A5, 2-(7-((2S,5R)-4-(1-(4-((1,1-dioxidothiomorpholino)methyl)-3,5-difluorophenyl)ethyl)-2,5-diethylpiperazin-1-yl)-4-methyl-5-oxo-4,5-dihydro-2H-pyrazolo[4,3-b]pyridin-2-yl)acetonitrile] | 73 | 497 |

More lines, now with the values ahead:

| IC50 (DGKζ) [nM] | IC50 (DGKα) [nM] | Compound |
| --- | --- | --- |
| 227 | 93 | CC[C@@H]1CN(c2cc(=O)n(C)c3cn(CC#N)nc23)[C@@H](C)CN1C(C)c1ccn2nccc2n1 (single isomer, unassigned) [Compound A166a] |
| > 10000 | 1630 | CC[C@@H]1CN(c2cc(=O)n(C)c3cn(CC#N)nc23)[C@@H](C)CN1C(C)c1ccn2nccc2n1 (single isomer, unassigned) [Compound A166b] |
| > 10000 | > 10000 | CC[C@H]1CN(C(C)c2ccc3ncc(Cl)n3n2)[C@H](CC)CN1c1cc(=O)n(C)c2cn(CC#N)nc12 (single isomer, unassigned) [Compound A167a] |
| 23 | 219 | CC[C@H]1CN(C(C)c2ccc3ncc(Cl)n3n2)[C@H](CC)CN1c1cc(=O)n(C)c2cn(CC#N)nc12 (single isomer, unassigned) [Compound A167b] |
| 3600 | 3410 | CC[C@H]1CN(C(C)c2ccc3ncc(F)n3n2)[C@H](CC)CN1c1cc(=O)n(C)c2cn(CC#N)nc12 (single isomer, unassigned) [Compound A168a] |
| 69 | 54 | CC[C@H]1CN(C(C)c2ccc3ncc(F)n3n2)[C@H](CC)CN1c1cc(=O)n(C)c2cn(CC#N)nc12 (single isomer, unassigned) [Compound A168b] |
| 211 | 3210 | CC[C@H]1CN(C(C)c2ccn3nc(C)c(F)c3c2)[C@H](CC)CN1c1cc(=O)n(C)c2cn(CC#N)nc12 (single isomer, unassigned) [Compound A169a] |
| 9280 | > 10000 | CC[C@H]1CN(C(C)c2ccn3nc(C)c(F)c3c2)[C@H](CC)CN1c1cc(=O)n(C)c2cn(CC#N)nc12 (single isomer, unassigned) [Compound A169b] |
| 116 | 107 | CCC(c1ccn2nc(C)cc2n1)N1C[C@H](C)N(c2cc(=O)n(C)c3cn(CC#N)nc23)C[C@H]1CC (single isomer, unassigned) [Compound A171a] |
| 5430 | 2690 | CCC(c1ccn2nc(C)cc2n1)N1C[C@H](C)N(c2cc(=O)n(C)c3cn(CC#N)nc23)C[C@H]1CC (single isomer, unassigned) [Compound A171b] |
| 108 | 158 | CC[C@@H]1CN(c2cc(=O)n(C)c3cn(CC#N)nc23)[C@@H](C)CN1C(C)c1ccn2nc(C)cc2n1 (single isomer, unassigned) [Compound A172a] |
| > 10000 | 7830 | CC[C@@H]1CN(c2cc(=O)n(C)c3cn(CC#N)nc23)[C@@H](C)CN1C(C)c1ccn2nc(C)cc2n1 (single isomer, unassigned) [Compound A172b] |
| 19 | 168 | CC[C@@H]1CN(c2cc(=O)n(C)c3cn(CC#N)nc23)[C@@H](C)CN1[C@@H](C)c1ccn2nc(C)c(F)c2n1 (single isomer, unassigned) [Compound A173a] |
| 2950 | > 10000 | CC[C@@H]1CN(c2cc(=O)n(C)c3cn(CC#N)nc23)[C@@H](C)CN1[C@H](C)c1ccn2nc(C)c(F)c2n1 (single isomer, unassigned) [Compound A173b] |
| 219 | 8530 | CC[C@H]1CN(C(C)c2ccc(C)cc2C)[C@H](CC)CN1c1cc(=O)n(C)c2cn(CC#N)nc12 (stereo partly drawn) [Compound A6, 2-(7-((2S,5R)-4-(1-(2,4-dimethylphenyl)ethyl)-2,5-diethylpiperazin-1-yl)-4-methyl-5-oxo-4,5-dihydro-2H-pyrazolo[4,3-b]pyridin-2-yl)acetonitrile] |
